Measured values from US20250262201A1, “COMPOUNDS AND METHODS USEFUL FOR STABILIZING PHENYLALANINE HYDROXYLASE MUTATIONS” (Agios Pharmaceuticals, Inc., priority 2022, published 2025).

Target: T1, human PAH with the R408W mutation (Homo sapiens, UniProt P00439, R408W)
T1 construct: expressed in transfected cells
T1 sequence (P00439 1-452 R408W): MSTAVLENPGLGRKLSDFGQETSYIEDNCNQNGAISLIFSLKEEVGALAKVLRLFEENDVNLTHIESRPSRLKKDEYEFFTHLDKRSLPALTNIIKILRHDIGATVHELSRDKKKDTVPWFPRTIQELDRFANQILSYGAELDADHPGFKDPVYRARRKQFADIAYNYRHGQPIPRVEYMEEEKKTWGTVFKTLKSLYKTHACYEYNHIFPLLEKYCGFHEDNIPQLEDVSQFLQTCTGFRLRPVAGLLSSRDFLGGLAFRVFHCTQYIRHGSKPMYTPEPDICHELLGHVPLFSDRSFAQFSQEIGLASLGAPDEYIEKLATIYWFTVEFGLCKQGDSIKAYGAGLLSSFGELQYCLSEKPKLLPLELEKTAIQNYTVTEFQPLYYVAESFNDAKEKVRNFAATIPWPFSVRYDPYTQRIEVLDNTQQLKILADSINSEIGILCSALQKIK
Assay: Cell Based Phenylalanine Flux Assay
Conditions: A375 cells expressing human R408W PAH; 24 hrs compound incubation; 13C-Tyrosine by LC-MS; average where tested multiple times; read-out: AC50

Compound	AC50 [nM]
O=C(c1nnc(-c2ccc(F)c(F)c2)o1)N1CCc2[nH]cnc2C1c1ccc2ccccc2n1 (stereo in doubt) [Example 69, (R)-(5-(3,4-difluorophenyl)-1,3,4-oxadiazol-2-yl)(4-(quinolin-2-yl)-6,7-dihydro-1H-imidazo[4,5-c]pyridin-5(4H)-yl)methanone]	500 to 1000
O=C(c1nnc(-c2ccc(F)c(F)c2)o1)N1CCc2[nH]cnc2C1c1ccc2ccccc2n1 (stereo in doubt) [Example 70, (S)-(5-(3,4-difluorophenyl)-1,3,4-oxadiazol-2-yl)(4-(quinolin-2-yl)-6,7-dihydro-1H-imidazo[4,5-c]pyridin-5(4H)-yl)methanone]	> 5000
O=C(c1oc(C2CC(F)(F)C2)nc1C(F)F)N1CCc2[nH]cnc2C1c1ccc2ccccc2n1 (stereo in doubt) [Example 71, (R)-(2-(3,3-difluorocyclobutyl)-4-(difluoromethyl)oxazol-5-yl)(4-(quinolin-2-yl)-6,7-dihydro-1H-imidazo[4,5-c]pyridin-5(4H)-yl)methanone]	< 500
O=C(c1oc(C2CC(F)(F)C2)nc1C(F)F)N1CCc2[nH]cnc2C1c1ccc2ccccc2n1 (stereo in doubt) [Example 72, (S)-(2-(3,3-difluorocyclobutyl)-4-(difluoromethyl)oxazol-5-yl)(4-(quinolin-2-yl)-6,7-dihydro-1H-imidazo[4,5-c]pyridin-5(4H)-yl)methanone]	1000 to 5000
Cn1nc(C(F)F)cc1C(=O)N1CCc2[nH]cnc2C1c1ccc2ccccc2n1 (stereo in doubt) [Example 73, (R)-(3-(difluoromethyl)-1-methyl-1H-pyrazol-5-yl)(4-(quinolin-2-yl)-6,7-dihydro-1H-imidazo[4,5-c]pyridin-5(4H)-yl)methanone]	500 to 1000
Cn1nc(C(F)F)cc1C(=O)N1CCc2[nH]cnc2C1c1ccc2ccccc2n1 (stereo in doubt) [Example 74, (S)-(3-(difluoromethyl)-1-methyl-1H-pyrazol-5-yl)(4-(quinolin-2-yl)-6,7-dihydro-1H-imidazo[4,5-c]pyridin-5(4H)-yl)methanone]	1000 to 5000
O=C(c1nnc(-c2ccc(F)cc2F)o1)N1CCc2[nH]cnc2C1c1ccc2ccccc2n1 (stereo in doubt) [Example 75, (R)-(5-(2,4-difluorophenyl)-1,3,4-oxadiazol-2-yl)(4-(quinolin-2-yl)-6,7-dihydro-1H-imidazo[4,5-c]pyridin-5(4H)-yl)methanone]	500 to 1000
O=C(c1nnc(-c2ccc(F)cc2F)o1)N1CCc2[nH]cnc2C1c1ccc2ccccc2n1 (stereo in doubt) [Example 76, (S)-(5-(2,4-difluorophenyl)-1,3,4-oxadiazol-2-yl)(4-(quinolin-2-yl)-6,7-dihydro-1H-imidazo[4,5-c]pyridin-5(4H)-yl)methanone]	> 5000
COCc1nc(C(F)F)c(C(=O)N2CCc3[nH]cnc3C2c2ccc3ccccc3n2)o1 (stereo in doubt) [Example 77, (R)-(4-(difluoromethyl)-2-(methoxymethyl)oxazol-5-yl)(4-(quinolin-2-yl)-6,7-dihydro-1H-imidazo[4,5-c]pyridin-5(4H)-yl)methanone]	< 500
COCc1nc(C(F)F)c(C(=O)N2CCc3[nH]cnc3C2c2ccc3ccccc3n2)o1 (stereo in doubt) [Example 78, (S)-(4-(difluoromethyl)-2-(methoxymethyl)oxazol-5-yl)(4-(quinolin-2-yl)-6,7-dihydro-1H-imidazo[4,5-c]pyridin-5(4H)-yl)methanone]	< 500
Cn1ncnc1C(=O)N1CCc2[nH]cnc2C1c1ccc2ccccc2n1 (stereo in doubt) [Example 80, (2-methyl-1,2,4-triazol-3-yl)-[(4R)-4-(2-quinolyl)-1,4,6,7-tetrahydroimidazo[4,5-c]pyridin-5-yl]methanone]	500 to 1000
O=C(c1ccnn1C(F)F)N1CCc2[nH]cnc2C1c1ccc2ccccc2n1 (stereo in doubt) [Example 81, (R)-(1-(difluoromethyl)-1H-pyrazol-5-yl)(4-(quinolin-2-yl)-6,7-dihydro-1H-imidazo[4,5-c]pyridin-5(4H)-yl)methanone]	< 500
O=C(c1ccnn1C(F)F)N1CCc2[nH]cnc2C1c1ccc2ccccc2n1 (stereo in doubt) [Example 82, (S)-(1-(difluoromethyl)-1H-pyrazol-5-yl)(4-(quinolin-2-yl)-6,7-dihydro-1H-imidazo[4,5-c]pyridin-5(4H)-yl)methanone]	> 5000
Cn1cc(C(=O)N2CCc3[nH]cnc3C2c2ccc3ccccc3n2)c(C(F)F)n1 (stereo in doubt) [Example 83, (R)-(3-(difluoromethyl)-1-methyl-1H-pyrazol-4-yl)(4-(quinolin-2-yl)-6,7-dihydro-1H-imidazo[4,5-c]pyridin-5(4H)-yl)methanone]	< 500
Cn1cc(C(=O)N2CCc3[nH]cnc3C2c2ccc3ccccc3n2)c(C(F)F)n1 (stereo in doubt) [Example 84, (S)-(3-(difluoromethyl)-1-methyl-1H-pyrazol-4-yl)(4-(quinolin-2-yl)-6,7-dihydro-1H-imidazo[4,5-c]pyridin-5(4H)-yl)methanone]	1000 to 5000
Cn1ccc(-c2nnc(C(=O)N3CCc4[nH]cnc4C3c3ccc4ccccc4n3)o2)n1 (stereo in doubt) [Example 85, (R)-(5-(1-methyl-1H-pyrazol-3-yl)-1,3,4-oxadiazol-2-yl)(4-(quinolin-2-yl)-6,7-dihydro-1H-imidazo[4,5-c]pyridin-5(4H)-yl)methanone]	< 500
Cn1ccc(-c2nnc(C(=O)N3CCc4[nH]cnc4C3c3ccc4ccccc4n3)o2)n1 (stereo in doubt) [Example 86, (S)-(5-(1-methyl-1H-pyrazol-3-yl)-1,3,4-oxadiazol-2-yl)(4-(quinolin-2-yl)-6,7-dihydro-1H-imidazo[4,5-c]pyridin-5(4H)-yl)methanone]	1000 to 5000
Cn1cc(C(=O)N2CCc3[nH]cnc3C2c2ccc3ccccc3n2)c(Cl)n1 (stereo in doubt) [Example 88, (R)-(3-chloro-1-methyl-1H-pyrazol-4-yl)(4-(quinolin-2-yl)-6,7-dihydro-1H-imidazo[4,5-c]pyridin-5(4H)-yl)methanone]	< 500
O=C(c1nnc(-c2ncccc2F)o1)N1CCc2[nH]cnc2C1c1ccc2ccccc2n1 (stereo in doubt) [Example 89, (R)-(5-(3-fluoropyridin-2-yl)-1,3,4-oxadiazol-2-yl)(4-(quinolin-2-yl)-6,7-dihydro-1H-imidazo[4,5-c]pyridin-5(4H)-yl)methanone]	< 500
O=C(c1nnc(-c2ncccc2F)o1)N1CCc2[nH]cnc2C1c1ccc2ccccc2n1 (stereo in doubt) [Example 90, (S)-(5-(3-fluoropyridin-2-yl)-1,3,4-oxadiazol-2-yl)(4-(quinolin-2-yl)-6,7-dihydro-1H-imidazo[4,5-c]pyridin-5(4H)-yl)methanone]	1000 to 5000
CC(C)(O)c1nc(C(F)F)c(C(=O)N2CCc3[nH]cnc3C2c2ccc3ccccc3n2)o1 (stereo in doubt) [Example 91, (R)-(4-(difluoromethyl)-2-(2-hydroxypropan-2-yl)oxazol-5-yl)(4-(quinolin-2-yl)-6,7-dihydro-1H-imidazo[4,5-c]pyridin-5(4H)-yl)methanone]	< 500
CC(C)(O)c1nc(C(F)F)c(C(=O)N2CCc3[nH]cnc3C2c2ccc3ccccc3n2)o1 (stereo in doubt) [Example 92, (S)-(4-(difluoromethyl)-2-(2-hydroxypropan-2-yl)oxazol-5-yl)(4-(quinolin-2-yl)-6,7-dihydro-1H-imidazo[4,5-c]pyridin-5(4H)-yl)methanone]	1000 to 5000
Cn1nccc1C(=O)N1CCc2[nH]cnc2C1c1ccc2ccccc2n1 (stereo in doubt) [Example 93, (R)-(1-methyl-1H-pyrazol-5-yl)(4-(quinolin-2-yl)-6,7-dihydro-1H-imidazo[4,5-c]pyridin-5(4H)-yl)methanone]	< 500
Cn1nccc1C(=O)N1CCc2[nH]cnc2C1c1ccc2ccccc2n1 (stereo in doubt) [Example 94, (S)-(1-methyl-1H-pyrazol-5-yl)(4-(quinolin-2-yl)-6,7-dihydro-1H-imidazo[4,5-c]pyridin-5(4H)-yl)methanone]	1000 to 5000
O=C(c1nnc(-c2ccn(C(F)F)n2)o1)N1CCc2[nH]cnc2C1c1ccc2ccccc2n1 (stereo in doubt) [Example 95, (S)-(5-(1-(difluoromethyl)-1H-pyrazol-3-yl)-1,3,4-oxadiazol-2-yl)(4-(quinolin-2-yl)-6,7-dihydro-1H-imidazo[4,5-c]pyridin-5(4H)-yl)methanone]	1000 to 5000
CC(C)(O)c1nc(Br)c(C(=O)N2CCc3[nH]cnc3C2c2ccc3ccccc3n2)o1 (stereo in doubt) [Example 97, (R)-(4-bromo-2-(2-hydroxypropan-2-yl)oxazol-5-yl)(4-(quinolin-2-yl)-6,7-dihydro-1H-imidazo[4,5-c]pyridin-5(4H)-yl)methanone]	< 500
CC(C)(O)c1nc(Br)c(C(=O)N2CCc3[nH]cnc3C2c2ccc3ccccc3n2)o1 (stereo in doubt) [Example 98, (S)-(4-bromo-2-(2-hydroxypropan-2-yl)oxazol-5-yl)(4-(quinolin-2-yl)-6,7-dihydro-1H-imidazo[4,5-c]pyridin-5(4H)-yl)methanone]	1000 to 5000
